The test system of assay [1] is polyol oxidase derived from Penicillium sp. KU-1. As to the kind of experiment: Substrate specificity of the partially purified polyol oxidase (peroxidase method). The format is biochemical. The following applies: for Relative activity (%): substrate specificity, partially purified enzyme, relative to D-arabitol = 100. How it is done: As the measurement method for the oxidase activity, a peroxidase method was used. When a D-glucose oxidase is taken as an example, the principle of the peroxidase method is as follows.
In this method, the activity is measured by colorimetric determination of hydrogen peroxide generated by an oxidation reaction. When hydrogen peroxide generated by an oxidation reaction with a substrate is reacted with a peroxidase, an oxidation reaction of ABTS is catalyzed to generate oxidized ABTS. The oxidized ABTS develops a blue color, and therefore, by visual observation or measurement of absorbance at 420 nm, the oxidase activity can be detected. In the measurement of the activity, the crude extract solution obtained by extraction from the wheat bran culture medium was used. Further, as the control, a reaction solution in which water was added in place of the substrate was also prepared in the same manner. After a reaction was allowed to proceed at room temperature, whether or not the color was developed was confirmed by visual observation, and the crude extract solution added to the reaction solution in which the color was developed was determined to have an oxidase activity.
The measurement of the activity of the present enzyme was performed by measuring an increase in absorbance at 420 nm using the same peroxidase method as described above. The enzymatic reaction was initiated by adding D-mannitol, and the absorbance was measured over time for 10 minutes under the reaction conditions of 30° C. using a spectrophotometer U-2010 manufactured by Hitachi Co., Ltd. The reaction was performed by preparing the reaction solution so that the total amount thereof was 1 mL as shown in Table 11. “1 unit” was defined as the amount of the enzyme required to increase the absorbance at 420 nm by 1 for 1 minute.
Among the polyols used in the assay, the activity of the enzyme was high for D-arabitol, erythritol, D-mannitol, and D-sorbitol, which are listed in descending order of activity, and a high activity was not observed for the other polyols.

For assay [2], the system named is polyol oxidase of the A strain. In words: Screening for oxidase activity, crude extract of A strain (peroxidase method, visual colour development). The format is biochemical, Penicillium sp. KU-1 (A strain). The following applies: substrate 0.5 M, room temperature. How it is done: (§1) Isolated microbial cells were inoculated into 5 mL of PDB, followed by shaking incubation at 28° C. for 1 week. In a 200-mL Erlenmeyer flask, 6 g of wheat bran and 15 mL of water were added and mixed with each other, and the resulting mixture was sterilized in an autoclave and used as a wheat bran culture medium. To the thus prepared wheat bran culture medium, the liquid-cultured microbial cells were added together with the total amount of the culture solution, and the resulting mixture was incubated at 28° C. After two-week incubation, an extract solution was prepared by a method described below and used for the measurement of the oxidase activity.
(§2) To the wheat bran culture medium in which the microbial cells were grown, 20 mL of a 10 mM potassium phosphate buffer (pH 7.0) was added, and the cells were well immersed therein and left to stand on ice for 1 hour, and then, the mixture was squeezed with a gauze pad. Thereafter, centrifugation was performed at 4° C. and 12,000 rpm for 18 minutes to remove fine particles, and the resulting solution was used as a crude extract solution.
(§3) In primary screening, a sugar mixed solution and an amino acid mixed solution were used in consideration of efficiency. The crude extract solution in which the activity was detected by the primary screening was subjected to secondary screening using the respective substrates individually at 0.5 M, and the substrate was specified.
(§4) As the measurement method for the oxidase activity, a peroxidase method was used. […]
(§5) In this method, the activity is measured by colorimetric determination of hydrogen peroxide generated by an oxidation reaction. […] The oxidized ABTS develops a blue color, and therefore, by visual observation or measurement of absorbance at 420 nm, the oxidase activity can be detected. […] After a reaction was allowed to proceed at room temperature, whether or not the color was developed was confirmed by visual observation, and the crude extract solution added to the reaction solution in which the color was developed was determined to have an oxidase activity.

Assay [3] deals with polyol oxidase of the B strain. In words: Screening for oxidase activity, crude extract of B strain (peroxidase method, visual colour development). The format is biochemical, B strain (filamentous fungus). The note with it: substrate 0.5 M, room temperature. How it is done: as §1, §2, §3, §4, §5
Assay [4] concerns D-glucose oxidase of the C strain. In words: Screening for oxidase activity, crude extract of C strain (peroxidase method, visual colour development). In kind it is biochemical, Aspergillus niger (C strain). The note with it: substrate 0.5 M, room temperature. How it is done:
as §1, with “activity. […]” for “activity.”
In primary screening, a sugar mixed solution and an amino acid mixed solution were used in consideration of efficiency. The crude extract solution in which the activity was detected by the primary screening was subjected to secondary screening using the respective substrates individually at 0.5 M, and the substrate was specified. […]
In this method, the activity is measured by colorimetric determination of hydrogen peroxide generated by an oxidation reaction. […] The oxidized ABTS develops a blue color, and therefore, by visual observation or measurement of absorbance at 420 nm, the oxidase activity can be detected. […]

Each structure is given as a SMILES string.

For the molecule `OCC(O)CO` [Glycerol], the “Relative activity (%)” value in assay [1] was determined as 0.18%.
Consider `OC[C@@H](O)[C@@H](O)[C@H](O)[C@@H](O)CO` [D-sorbitol], for which, in assay [1], the “activity of the enzyme for the polyol (in words)” value (“activity of the enzyme” for short) is given as “high” and the “Relative activity (%)” value is listed as 36.7%. In addition, in assay [2], the “reactivity as a substrate of the oxidase of the A strain” value (shortened to “reactivity … of the A strain”) was “uses D-sorbitol and D-mannitol as a substrate”. Moreover, in assay [3], the “reactivity as a substrate of the enzyme of the B strain” value (from here on “reactivity … of the B strain”) is “uses all of D-sorbitol, D-mannitol, and allitol as a substrate”.
Take `OC[C@H](O)[C@H](O)[C@H](O)[C@@H](O)CO` [L-talitol]: in assay [1], the “Relative activity (%)” value was found to be 0.3%.
Turning to `OC[C@@H](O)[C@@H](O)[C@@H](O)[C@@H](O)CO` [Allitol], in assay [1], the “activity of the enzyme” value was “low” and the “Relative activity (%)” value is given as 0.45%. Besides, the “reactivity … of the A strain” value in assay [2] was “does not show reactivity”. In addition, the “reactivity … of the B strain” value in assay [3] is “uses all of D-sorbitol, D-mannitol, and allitol as a substrate”.
With `OC[C@@H](O)[C@@H](O)CO` [Erythritol], in assay [1], the “activity of the enzyme” value is “high” and the “Relative activity (%)” value was determined as 80.5%.
In the case of `OC[C@@H](O)[C@@H](O)[C@H](O)[C@H](O)CO` [D-mannitol], in assay [1], the “activity of the enzyme” value is “high” and the “Relative activity (%)” value was determined as 79.0%. For the same molecule, the “reactivity … of the A strain” value in assay [2] was “uses D-sorbitol and D-mannitol as a substrate”. Besides, the “reactivity … of the B strain” value in assay [3] is “uses all of D-sorbitol, D-mannitol, and allitol as a substrate”.
For `OC[C@@H](O)[C@H](O)[C@H](O)[C@H](O)CO` [D-talitol], in assay [1], the “activity of the enzyme” value is listed as “low” and the “Relative activity (%)” value is on record as 0.3%.
In the case of `OC[C@@H](O)[C@@H](O)[C@@H](O)CO` [Ribitol], the “activity of the enzyme” value in assay [1] is reported as “low”.
On to `OC[C@@H](O)[C@H](O)[C@@H](O)CO` [Xylitol], for which the “Relative activity (%)” value in assay [1] is given as 1.2%.
For `O=C[C@H](O)[C@@H](O)[C@H](O)[C@H](O)CO` [D-glucose], the “reactivity as a substrate of the D-glucose oxidase of the C strain” value in assay [4] is on record as “high substrate specificity for D-glucose”.
On to `OC[C@@H](O)C(O)[C@H](O)CO` [D-arabitol], for which, in assay [1], the “activity of the enzyme” value is “high” and the “Relative activity (%)” value is 100%.

The values above are taken from US20140302568A1, “POLYOL OXIDASE” (NATIONAL UNIVERSITY CORPORATION KAGAWA UNIVERSITY, priority 2011, published 2014).
